Earlier results in patent US20060088617A1, “Chocolate composition and method for benefiting the cardiovascular system” (priority 2004, published 2006).

Tested on: blood vessel function
Details: after consumption of flavonoid-rich dark chocolate

## Oc1cc(O)c2c(c1)O[C@H](c1ccc(O)c(O)c1)[C@H](O)C2 [epicatechin]
  absorption of epicatechin in the blood: absorbed at high levels in the blood
